Experimental data reported in PMC6255099, “Amides from Piper capense with CNS Activity – A Preliminary SAR Analysis” (Molecules, 2009).
Several values for one entry are separate records, joined by “and”; a condition that tells them apart may be missing. Equal values may be shown once. Read-outs that look alike come from different tables or passages of the source. One block for each molecule: values may come before it.

How the values were obtained:
[1] = molecular target: benzodiazepine site on the GABAA receptor; assay: [3H]-flumazenil binding assay (GABA-benzodiazepine binding assay); parameters: species or system rat; details: for Ki: as worded in text b6; for IC50: rat brain cortex, 0.5 nM [3H]-flumazenil, mean ± standard error, n.d. = not detected in tested concentrations below 10 mM; for affinity for the benzodiazepine site (in words): [3H]-flumazenil binding assay
Procedure: (§1) The GABA binding assay was carried out according to a previously published method, with modifications. To a suspension of rat brain cortex (500 µL) was added test solution (25 µL) and [^3H]-flumazenil (25 µL, Ro 15-1788, Perkin-Elmer Life Science) to 0.5 nM final concentration in the assay. The suspension was mixed and incubated for 40 min on ice and poured directly onto glass fiber filters (Adventic, GC-50) under suction, in an ice-bath, followed by washing with ice-cold Tris-citrate buffer. The amount of radioactivity was determined by liquid scintillation counting. Non-specific binding was determined using diazepam (1 µM final concentration in the assay) and flumazenil was used as positive control. Specific binding was calculated as total binding minus non-specific binding. All experiments were done in triplicate. The serotonin re-uptake inhibition assay was performed according to previously described methods.

[2] = molecular target: serotonin re-uptake transport protein (Rattus norvegicus, UniProt P31652); assay: [3H]-citalopram binding assay (serotonin re-uptake inhibition assay)
serotonin re-uptake transport protein, sequence (P31652 whole entry): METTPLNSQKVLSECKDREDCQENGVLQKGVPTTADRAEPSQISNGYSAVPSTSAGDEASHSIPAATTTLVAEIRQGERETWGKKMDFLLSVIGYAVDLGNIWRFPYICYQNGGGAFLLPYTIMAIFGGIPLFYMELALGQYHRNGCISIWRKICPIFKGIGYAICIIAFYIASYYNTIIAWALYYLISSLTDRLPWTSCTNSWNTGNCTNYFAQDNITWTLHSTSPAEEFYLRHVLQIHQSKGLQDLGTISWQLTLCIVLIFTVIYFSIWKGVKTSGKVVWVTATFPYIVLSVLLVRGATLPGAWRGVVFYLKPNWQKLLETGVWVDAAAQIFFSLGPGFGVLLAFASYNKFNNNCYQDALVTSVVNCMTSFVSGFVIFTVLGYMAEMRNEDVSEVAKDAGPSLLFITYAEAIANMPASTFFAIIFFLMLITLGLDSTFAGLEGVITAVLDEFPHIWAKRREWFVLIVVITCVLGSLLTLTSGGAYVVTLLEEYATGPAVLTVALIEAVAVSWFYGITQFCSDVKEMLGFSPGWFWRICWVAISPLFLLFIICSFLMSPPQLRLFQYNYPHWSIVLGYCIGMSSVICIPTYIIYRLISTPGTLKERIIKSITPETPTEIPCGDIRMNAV
Procedure: as §1

MES seizures in mice = tested on: MES seizures in mice; parameters: method as in doi:10.1016/S0165-7208(06)80055-3; details: cited from earlier work
GABAA receptor = tested on: GABAA receptor; parameters: method as in PMID 1332016; details: cited from earlier work
[3] = mean ± standard error, n.d. = not detected in tested concentrations below 10 mM, read-out: [3H]-citalopram binding assay IC50
[4] = read-out: Ki, serotonin re-uptake transport protein

Ki [1]: 1175 ± 3 µM | IC50 [1]: 1200 µM and 1180 µM
Structure (SMILES): O=C(/C=C/C=C/c1ccc2c(c1)OCO2)N1CCCCC1 [Compound 1, Piperine]

Ki [1]: 1054 ± 4 µM | IC50 [1]: 1000 µM and 1050 µM | IC50 [2, 3]: 2980 ± 1630 µM | IC50 [2, 4]: 2980 ± 1630 µM
Structure (SMILES): O=C(/C=C/CCc1ccc2c(c1)OCO2)N1CCCCC1 [Compound 2, 4,5-Dihydropiperine]

IC50 [2, 3]: 585 ± 1520 µM
Structure (SMILES): O=C(CCCCc1ccc2c(c1)OCO2)N1CCCCC1 [Compound 4, Tetrahydropiperidine]

affinity for the benzodiazepine site (in words) [1]: no affinity
Structure (SMILES): O=C(/C=C/c1ccc2c(c1)OCO2)N1CCCCC1 [Compound 5, Antiepilepsirine]

affinity for the benzodiazepine site (in words) [1]: lack of affinity
Structure (SMILES): O=C(CCc1ccc2c(c1)OCO2)N1CCCCC1 [Compound 6, 3-Benzo[1,3]dioxol-5-yl-1-piperidin-1-yl-propan-1-one]
protection against MES induced seizures (MES seizures in mice): protection

IC50 [2, 3]: 2690 ± 1390 µM | IC50 [2, 4]: 2690 ± 1390 µM
Structure (SMILES): O=C(/C=C/CCc1cc2c(cc1Cl)OCO2)N1CCCCC1 [Compound 8, trans-5-(6-Chlorobenzo[1,3]dioxol-5-yl)-1-(piperidin-1-yl)pent-2-en-1-one]

affinity for the benzodiazepine site (in words) [1]: lack of affinity
Structure (SMILES): CC(C)NC(=O)CCc1ccc2c(c1)OCO2 [Compound 10, 3-Benzo[1,3]dioxol-5-yl-N-isopropyl-propionamide]
protection against MES induced seizures (MES seizures in mice): protection

Structure (SMILES): COC1=CC(=O)O[C@@H](/C=C/c2ccc3c(c2)OCO3)C1 [methysticin, Methysticin]
association of GABAA receptor activation with the benzodiazepine binding site (GABAA receptor): not to be associated with the benzodiazepine binding site
